Test results: patent US5443967A, “DNA encoding the cancer associated SCM recognition factor” (priority 1993, dated 1995)

Tests used:
[1] = system: SCM-responding lymphocytes; experiment: SCM-response modifying effect of α-1-PI (SCM test after preincubation and washing); type: cell-based, human; conditions: 2.5 hr α-1-PI + 3X Wash
Procedure: SCM-responding lymphocytes were isolated from blood samples of a patient with malignant melanoma and from a normal, healthy donor. Half of the lymphocyte suspension from each sample was incubated with 30 nanomoles of α-1-PI per 6×10^6 cells for 2.5 hours at 37° C.; the other half was retained as an untreated control. The cells were then washed three times with PBS. Aliquots from both the untreated controls and the α-1-PI-treated samples were challenged for 40 min with phytohemagglutinin (PHA) or SCM factor. […] The RRSCM was 1.74 in the absence of incubation and 1.68 after incubation.

cathepsin G = biological target: T1, cathepsin G (Homo sapiens, UniProt P08311); experiment: Casein-resorufin protease assay: inhibition of cathepsin G by α-1-PI; type: biochemical; conditions: 1 μg Cathepsin G + 6.6 μg α-1-PI; 300 μL
T1 sequence (P08311 21-244 limits assumed): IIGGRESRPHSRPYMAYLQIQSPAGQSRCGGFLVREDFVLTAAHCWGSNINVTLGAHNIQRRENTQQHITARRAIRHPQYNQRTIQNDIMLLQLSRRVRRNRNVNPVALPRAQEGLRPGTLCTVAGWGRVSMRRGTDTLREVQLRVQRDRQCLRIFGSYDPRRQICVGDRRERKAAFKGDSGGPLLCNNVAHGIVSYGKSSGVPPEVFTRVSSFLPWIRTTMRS
Procedure: (§1) A protease activity using casein-resorufin as a protease substrate was performed to determine the effect of SCM factor on inhibition of the serine proteases trypsin, elastase, and cathepsin G by the serine protease inhibitor α-1-PI. The protocol provided by the manufacturer, Boehringer-Mannheim Biochemica, was followed to assay protease activity. […] However, when SCM factor was added before α-1-PI or simultaneously in a mixture with α-1-PI, it prevented the inhibition of trypsin by α-1-PI. The degree of this effect depended on the quantity of SCM factor added. […] The active portion of the molecule that prevents inhibition of the proteolytic enzymes by α- 1-PI resides within the first seven amino-terminal amino acid residues of the SCM factor. This portion of the molecule is designated "fraction 6" or F6. The effectiveness of equimolar amounts of the peptide F6, as compared to the entire SCM factor molecule (Table 20) in preventing the inhibition of elastase by α-1-PI is shown in Table 22.

elastase = experiment: Casein-resorufin protease assay: inhibition of elastase by α-1-PI; type: biochemical; conditions: 3.2 μg Elastase + 6.6 μg α-1-PI
Procedure: as §1

trypsin = experiment: Casein-resorufin protease assay: inhibition of trypsin by α-1-PI; type: biochemical; conditions: 3 μg Trypsin + 6.6 μg α-1-PI; 300 μL
Procedure: as §1

Cathepsin G Activity in Casein-Resorufin Assay as % of Untreated Control Enzyme (cathepsin G): 20.0%
Trypsin Activity in Casein-Resorufin Assay as % of Untreated Control Enzyme (elastase; 300 μL (Table 20)): 3.5%
Trypsin Activity in Casein-Resorufin Assay as % of Untreated Control Enzyme (trypsin): 13.6%
Substance: α-1-PI: glycoprotein serine protease inhibitor, 55,000 daltons, single chain of 394 residues
RRSCM ([1]; lymphocyte donor Healthy): 1.68
RRSCM ([1]; lymphocyte donor Malignant Melanoma): 1.8
Elastase Activity in Casein-Resorufin Assay as % of Untreated Control Enzyme (elastase; 300 μL (Table 22)): 3.4%
